Columns and labels:
Format in all cases: biochemical
[1] = biological target: T1, JAK1 (Homo sapiens, UniProt P23458); assay: Z'-LYTE kinase assay JAK1
T1 construct: 5 μl of catalytic domain recombinant Kinase enzyme+Tyr peptide substrate (Invitrogen, CA); purchased Invitrogen
In short: (§1)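 Catalytic-domain recombinant kinase was incubated with Tyr6 FRET peptide, ATP and compound (1% DMSO final) for 1 h at room temperature. Protease development followed for 1 h, cleaving only non-phosphorylated peptide. Inhibition of phosphorylation was read as coumarin/fluorescein FRET fluorescence.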

[2] = biological target: T2, JAK2 (Homo sapiens, UniProt O60674); assay: Z'-LYTE kinase assay JAK2
T2 construct: 5 μl of catalytic domain recombinant Kinase enzyme+Tyr peptide substrate (Invitrogen, CA); purchased Invitrogen
T2 sequence (O60674 849-1124 limits assumed): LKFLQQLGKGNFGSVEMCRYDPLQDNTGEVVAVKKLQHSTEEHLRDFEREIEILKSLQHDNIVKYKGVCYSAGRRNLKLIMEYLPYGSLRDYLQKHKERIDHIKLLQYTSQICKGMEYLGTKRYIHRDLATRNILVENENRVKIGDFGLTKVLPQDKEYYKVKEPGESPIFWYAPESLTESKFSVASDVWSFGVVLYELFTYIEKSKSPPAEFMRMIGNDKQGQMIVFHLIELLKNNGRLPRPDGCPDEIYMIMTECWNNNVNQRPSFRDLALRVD
In short: as §1

[3] = biological target: T3, JAK3 (Homo sapiens, UniProt P52333); assay: Z'-LYTE kinase assay JAK3
T3 construct: 5 μl of catalytic domain recombinant Kinase enzyme+Tyr peptide substrate (Invitrogen, CA); purchased Invitrogen
T3 sequence (P52333 822-1111 limits assumed): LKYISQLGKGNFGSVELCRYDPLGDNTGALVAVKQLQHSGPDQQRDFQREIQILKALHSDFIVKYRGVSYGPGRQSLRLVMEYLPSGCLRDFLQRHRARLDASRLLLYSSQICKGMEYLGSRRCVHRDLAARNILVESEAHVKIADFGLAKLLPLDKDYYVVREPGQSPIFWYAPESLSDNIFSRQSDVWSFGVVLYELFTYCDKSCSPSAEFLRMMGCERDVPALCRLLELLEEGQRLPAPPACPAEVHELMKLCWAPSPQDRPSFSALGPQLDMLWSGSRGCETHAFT
In short: as §1

T1 sequence (P23458 875-1153 limits assumed): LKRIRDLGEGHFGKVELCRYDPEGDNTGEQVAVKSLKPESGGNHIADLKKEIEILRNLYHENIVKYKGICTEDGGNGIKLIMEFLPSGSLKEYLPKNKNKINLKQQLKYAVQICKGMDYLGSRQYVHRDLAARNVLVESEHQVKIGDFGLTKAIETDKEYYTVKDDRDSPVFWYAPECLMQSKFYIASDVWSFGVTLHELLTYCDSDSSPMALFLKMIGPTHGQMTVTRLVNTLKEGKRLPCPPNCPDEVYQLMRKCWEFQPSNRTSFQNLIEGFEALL

Row | SMILES | IC50 [1] [nM] | IC50 [2] [nM] | IC50 [3] [nM]
1 | CCC(=O)N1CCC(c2ccc(Nc3cc(NCc4ncccn4)c(C(N)=O)cn3)cc2)CC1 [Example 180, 6-(4-(1-propionylpiperidin-4-yl)phenylamino)-4-(pyrimidin-2-ylmethylamino)nicotinamide] | > 1000 | > 1000 | 100 to 1000
2 | NC(=O)c1cnc(Nc2ccc(C3CCOCC3)cc2)cc1NCc1ccncn1 [Example 181, 4-(pyrimidin-4-ylmethylamino)-6-(4-(tetrahydro-2H-pyran-4-yl)phenylamino)nicotinamide] | > 1000 | > 1000 | > 1000
3 | Cn1c(CNc2cc(Nc3ccc(C4CCOCC4)cc3)ncc2C(N)=O)nc2ccccc21 [Example 182, 4-((1-methyl-1H-benzo[d]imidazol-2-yl)methylamino)-6-(4-(tetrahydro-2H-pyran-4-yl)phenylamino)nicotinamide] | > 1000 | > 1000 | > 1000
4 | Cn1ccnc1CNc1cc(Nc2ccc(C3CCOCC3)cc2)ncc1C(N)=O [Example 183, 4-((1-methyl-1H-imidazol-2-yl)methylamino)-6-(4-(tetrahydro-2H-pyran-4-yl)phenylamino)nicotinamide] | 100 to 1000 | 100 to 1000 | 10 to 100
5 | C#CCNc1cc(Nc2ccc(C3CCOCC3)cc2)ncc1C(N)=O [Example 184, 4-(prop-2-ynylamino)-6-(4-(tetrahydro-2H-pyran-4-yl)phenylamino)nicotinamide] | > 1000 | > 1000 | 100 to 1000
6 | NC(=O)c1cnc(Nc2ccc(C3CCOCC3)cc2)cc1NCc1cccnc1 [Example 185, 4-(pyridin-3-ylmethylamino)-6-(4-(tetrahydro-2H-pyran-4-yl)phenylamino)nicotinamide] | 100 to 1000 | 100 to 1000 | 10 to 100
7 | CC(C)[C@H](C)Nc1cc(Nc2ccc(C3CCOCC3)cc2)ncc1C(N)=O [Example 186, (S)-4-(3-methylbutan-2-ylamino)-6-(4-(tetrahydro-2H-pyran-4-yl)phenylamino)nicotinamide] | 100 to 1000 | 100 to 1000 | 10 to 100
8 | CCC(=O)N1CCC(c2ccc(Nc3cc(N[C@H](C)C(C)C)c(C(N)=O)cn3)cc2)CC1 [Example 189, (R)-4-(3-methylbutan-2-ylamino)-6-(4-(1-propionylpiperidin-4-yl)phenylamino)nicotinamide] | 10 to 100 | 10 to 100 | 1 to 10
9 | CCC(=O)N1CCC(c2ccc(Nc3cc(N[C@H](C)C(C)(C)C)c(C(N)=O)cn3)cc2)CC1 [Example 190, (R)-4-(3,3-dimethylbutan-2-ylamino)-6-(4-(1-propionylpiperidin-4-yl)phenylamino)nicotinamide] | 10 to 100 | 10 to 100 | 1 to 10
10 | CCC(=O)N1CCC(c2ccc(Nc3cc(N[C@H](C)C4CCCCC4)c(C(N)=O)cn3)cc2)CC1 [Example 191, (R)-4-(1-cyclohexylethylamino)-6-(4-(1-propionylpiperidin-4-yl)phenylamino)nicotinamide] | > 1000 | > 1000 | 100 to 1000
11 | CCC(=O)N1CCC(c2ccc(Nc3cc(NCC4CCCCC4)c(C(N)=O)cn3)cc2)CC1 [Example 192, 4-(cyclohexylmethylamino)-6-(4-(1-propionylpiperidin-4-yl)phenylamino)nicotinamide] | > 1000 | 100 to 1000 | 10 to 100
12 | CCC(=O)N1CCC(c2ccc(Nc3cc(NCC4(c5ccccc5)CC4)c(C(N)=O)cn3)cc2)CC1 [Example 194, 4-((1-phenylcyclopropyl)methylamino)-6-(4-(1-propionylpiperidin-4-yl)phenylamino)nicotinamide] | > 1000 | > 1000 | 100 to 1000
13 | NC(=O)c1cnc(Nc2ccc(C3CCOCC3)cc2)cc1NCc1cn(CCN2CCCCC2)nn1 [Example 201, 4-((1-(2-(piperidin-1-yl)ethyl)-1H-1,2,3-triazol-4-yl)methylamino)-6-(4-(tetrahydro-2H-pyran-4-yl)phenylamino)nicotinamide] | > 1000 | > 1000 | > 1000
